Tests used:
Type in all cases: physicochemical
[1] = Dynamic Vapor Sorption (DVS) analysis; details: after drying with dry nitrogen, two sorption-desorption cycles, 0 to 10% RH
Procedure: Approximately 15-20 mg of the sample was weighed into a quartz receptacle, which was then released of static electricity by exposing it to a radioactive source. The quartz receptacle was then positioned in a Surface Measurements System Ltd DVS Advantage instrument. The sample was dried with dry nitrogen gas until a dm/dt below 0.002% per minute was reached. The instrument was running in dm/dt-mode using a dm/dt window of 5 minutes, a minimum stage time of 10 minutes and a maximum stage time of 360 minutes. The sample was then subjected to two consecutive sorption-desorption cycles, using d/m/dt-mode parameters above, and each cycle running from 0-95-0% relative humidity (% RH). One cycle consisted of 20 steps, those between 0-90% RH were taken in 10% RH each.
A sample of crystal modification IV was weighed into the quartz scale pan of a Scientific Instruments Dynamic Vapor Sorption instrument. The sample was released of static electricity by moving a radioactive isotope over it and was then put into the instrument. The sample was dried by flushing dry nitrogen gas until the weight was constant and then two consecutive sorption-desorption cycles were run. Crystal modification IV absorbs approximately 2.45% water between 0 and 10% RH, and an additional 0.36 to 0.37% water between 10 and 60% RH. […]

[2] = Thermal gravimetric analysis (TGA) of water/solvent content; details: heated at 10° C./min from 25° C., dry nitrogen purge
Procedure: Approximately 1-5 mg of sample was added to a tared Platinum cup which was then placed in the weighting position of a Perkin-Elmer Pyris 1 TGA analyzer. The furnace was raised and the starting weight of the sample was recorded. The heating program was then started. The sample was heated at a rate of 10° C./min, starting at 25° C. and ending at 90-300° C., depending on where a constant temperature could be attained. The sample was purged with dry nitrogen gas during analysis.
A sample of crystal modification IV was analyzed with XRPD and the water content was checked with TGA. The weight loss for crystal modification IV was initially slow, but accelerated at about 50° C. and was finalized at about 80° C. A weight loss of 2.7% w/w was observed.
A sample of crystal modification I was analyzed with XRPD and the water content was checked with TGA. […] A weight loss of 0.99% w/w was observed.
The solvent content of a sample of EtOH-1 was analyzed with TGA.

[3] = Relative thermodynamic stability of crystal modifications; details: normal conditions (21° C., 10-30% relative humidity)
[4] = Storage stability of the crystal modification (XRPD)
Procedure: Dry samples were lightly ground in an agate mortar, if needed, and were then smeared out on a sample holder. Slurry samples were added to the sample holder as wet and were analyzed both wet and dry. XRPD data were collected on a cut Silicon Zero Background Holder (ZBH) or on a Porous Alumina Filter Sample Holder, using a PANalytical X'Pert Pro diffractometer, equipped with an X'celerator or a PIXcel detector. The sample was spun during analysis and Cu-radiation was used. The following experimental settings were used:
A batch of crystal modification IV was stored in a closed glass vial and kept at 20° C. and between 20 and 60% RH for 17 months.

Row | SMILES | water absorbed between 0 and 10% RH [1] | TGA weight loss [2] | thermodynamic stability compared with crystal modification I and other crystal modifications of elobixibat [3] | crystalline form by XRPD after storage ([4]; closed glass vial, 20° C., between 20 and 60% RH, 17 months) | time of storage for which found stable ([4]; such as under ambient, open conditions) [months]
1 | CCCCC1(CCCC)CN(c2ccccc2)c2cc(SC)c(OCC(=O)N[C@@H](C(=O)NCC(=O)O)c3ccccc3)cc2S(=O)(=O)C1 [crystal modification I, N-{(2R)-2-[({[3,3-dibutyl-7-(methyl-thio)-1,1-dioxido-5-phenyl-2,3,4,5-tetrahydro-1,5-benzothiazepin-8-yl]oxy}acetyl)amino]-2-phenylethanolyl}glycine] | approximately 0.66% | 0.99 % w/w |  |  | 
2 | CCCCC1(CCCC)CN(c2ccccc2)c2cc(SC)c(OCC(=O)N[C@@H](C(=O)NCC(=O)O)c3ccccc3)cc2S(=O)(=O)C1 [EtOH-1, N-{(2R)-2-[({[3,3-dibutyl-7-(methyl-thio)-1,1-dioxido-5-phenyl-2,3,4,5-tetrahydro-1,5-benzothiazepin-8-yl]oxy}acetyl)amino]-2-phenylethanolyl}glycine] |  | approximately 6 % w/w |  |  | 
3 | CCCCC1(CCCC)CN(c2ccccc2)c2cc(SC)c(OCC(=O)N[C@@H](C(=O)NCC(=O)O)c3ccccc3)cc2S(=O)(=O)C1 [crystal modification IV, N-{(2R)-2-[({[3,3-dibutyl-7-(methyl-thio)-1,1-dioxido-5-phenyl-2,3,4,5-tetrahydro-1,5-benzothiazepin-8-yl]oxy}acetyl)amino]-2-phenylethanolyl}glycine] | approximately 2.45% | 2.7 % w/w | more thermodynamically stable | unchanged | ≥ 17

Reference: patent US9745276B2, “Crystal modifications of elobixibat” (Elobix AB, priority 2013, dated 2017)
